The test system of experiment [1] is Tubulin (microtubule protein). The experiment in a line: Tubulin assay (turbidometric assay of microtubule assembly). It is filed as biochemical. The settings on record: Table 1; 50 μM; absorbance at 340 nm, 37° C. The protocol: Turbidometric assays of microtubule assembly were performed by incubating microtubule protein in cuvettes at 37° C. in a thermostatically controlled spectrophotometer measuring the change in absorbance at 340 nm over time. The microtubule protein was incubated with the each test compound at 0° C. and polymerisation was initiated by addition of 1 mM GTP, prior to heating to 37° C.

The subject of experiment [2] is K562 (Chronic Myeloid Leukemia). The experiment in a line: Cellular growth inhibition assay (MTT), K562. The settings on record: Homo sapiens, Table 1, 40 hr incubation. It is filed as cell-based. Summed up:
(§1)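 Late-log-phase cells (K562 in RPMI, DU145 in DMED, PC3 in F12K; all 10% FBS, Glutamx, plus MEM non-essential amino acids for DU145 and PC3) were plated at 50000–200,000 cell/mL (1.1× final) with compounds added at 10× final. After 40 hr at 37° C, 5% CO2, MTT was added for 6 hours, then SDS/HCl lysis overnight and absorbance read at 590 nm.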

Experiment [3] has as its target T1, TelJak3 (BaF3 TELJAK cells, TEL/JAK3 fusion) (Homo sapiens, UniProt P52333).
T1 construct: For JAK3 Sa1 I/Not I cleaved kinase domain PCR product was ligated with BamH I/Sa1 I cleaved TELproduct; expressed in transfected cells; host or cells: BaF3 cells bearing the pTET-off plasmid, transfected with pTELJAK3 (pTRE2 vector); the other entry of the earlier key: ETV6 (P41212, Transcription factor ETV6)
The experiment in a line: Cellular growth inhibition assay (MTT), BaF3 TEL:JAK3 cell line. It is filed as cell-based. The settings on record: Table 1, 40 hr incubation.

For a further experiment, the system named is PC3 (Prostate Cancer). As to the kind of experiment: Cellular growth inhibition assay (MTT), PC3. It counts as cell-based. Conditions: Table 1, 40 hr incubation. An outline of the steps:
as §1

For experiment [4], the target named is T2, TelJak2 (BaF3 TELJAK cells, TEL/Jak2 fusion) (Homo sapiens, UniProt O60674).
T2 construct: The regions encompassing the kinase domain of JAK2 (nucleotides 2994-3914); expressed in transfected cells; host or cells: BaF3 cells bearing the pTET-off plasmid, transfected with pTELJAK2 (pTRE2 vector); the other entry of the earlier key: ETV6 (P41212, Transcription factor ETV6)
T2 sequence (O60674 with tags, fused parts or gaps): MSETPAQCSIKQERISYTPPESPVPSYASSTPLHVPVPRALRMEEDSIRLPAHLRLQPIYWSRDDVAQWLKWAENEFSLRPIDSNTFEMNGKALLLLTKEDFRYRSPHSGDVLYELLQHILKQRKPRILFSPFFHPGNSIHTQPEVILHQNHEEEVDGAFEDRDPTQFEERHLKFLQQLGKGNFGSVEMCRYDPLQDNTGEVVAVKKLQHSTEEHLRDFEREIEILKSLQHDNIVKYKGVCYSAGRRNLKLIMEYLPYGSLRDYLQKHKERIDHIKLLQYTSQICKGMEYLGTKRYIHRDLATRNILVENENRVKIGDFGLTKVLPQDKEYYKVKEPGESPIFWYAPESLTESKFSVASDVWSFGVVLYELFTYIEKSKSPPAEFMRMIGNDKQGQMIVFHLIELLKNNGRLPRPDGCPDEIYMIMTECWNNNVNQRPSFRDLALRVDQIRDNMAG
The experiment in a line: Cellular growth inhibition assay (MTT), BaF3 TEL:JAK2 cell line. It is filed as cell-based. Conditions: Table 1, 40 hr incubation.

In the next experiment the test system is DU145 (Prostate Cancer). The experiment in a line: Cellular growth inhibition assay (MTT), DU145. The settings on record: Homo sapiens, DU-145, Table 1, 40 hr incubation. It counts as cell-based. Summed up: as §1

T1 sequence (P52333 with tags, fused parts or gaps): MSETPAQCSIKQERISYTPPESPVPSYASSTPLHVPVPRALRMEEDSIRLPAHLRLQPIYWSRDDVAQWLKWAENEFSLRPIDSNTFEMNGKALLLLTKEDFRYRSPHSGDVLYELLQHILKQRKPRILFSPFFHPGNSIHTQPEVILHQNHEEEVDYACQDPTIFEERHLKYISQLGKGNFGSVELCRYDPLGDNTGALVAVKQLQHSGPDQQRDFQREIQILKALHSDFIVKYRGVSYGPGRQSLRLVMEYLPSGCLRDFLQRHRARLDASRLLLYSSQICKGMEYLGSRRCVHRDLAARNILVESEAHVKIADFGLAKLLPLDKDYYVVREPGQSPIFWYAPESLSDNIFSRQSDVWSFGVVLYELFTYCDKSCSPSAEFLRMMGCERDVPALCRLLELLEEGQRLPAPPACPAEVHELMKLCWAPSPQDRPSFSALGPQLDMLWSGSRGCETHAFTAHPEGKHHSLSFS

With `CCCC(Nc1cncc(-c2ccc(NC(=O)NCC)c(OC)c2)n1)c1cccc(F)c1` (stereo not drawn), the “Tubulin inhibition of tubulin polymerisation” value (“Tubulin inhibition” below) in experiment [1] is reported as “+ (compounds which inhibited tubulin polymerisation by greater than 50% at 50 μM)”. The inhibition at 20 µM (in experiment [2]; in experiment [3]; with PC3 (Prostate Cancer); in experiment [4]; in the experiment on DU145 (Prostate Cancer)) was above 50% in each case.
In the case of `CCCC(Nc1cncc(-c2ccc(CO)cc2)n1)c1ccccc1` (stereo not drawn), the “Tubulin inhibition” value in experiment [1] is “+ (compounds which inhibited tubulin polymerisation by greater than 50% at 50 μM)”. Further, the inhibition at 20 µM (in experiment [2]; in experiment [3]; with PC3 (Prostate Cancer); in experiment [4]; in the experiment on DU145 (Prostate Cancer)) was above 50% in each case.
In the case of `CCCC(Nc1cncc(-c2ccc(OCCCN(CC)CC)c(OC)c2)n1)c1ccccc1` (stereo not drawn), in experiment [1], the “Tubulin inhibition” value was “+ (compounds which inhibited tubulin polymerisation by greater than 50% at 50 μM)”. Further, the inhibition at 20 µM (in experiment [2]; in experiment [3]; with PC3 (Prostate Cancer); in experiment [4]; in the experiment with DU145 (Prostate Cancer)) was above 50% in each case.
As to `CCCC(Nc1cncc(-c2ccc(OCCCN3CCN(C)CC3)c(OC)c2)n1)c1ccccc1` (stereo not drawn), the “Tubulin inhibition” value in experiment [1] is “+ (compounds which inhibited tubulin polymerisation by greater than 50% at 50 μM)”. Further, the inhibition at 20 µM (in experiment [2]; in experiment [3]; in the experiment on PC3 (Prostate Cancer); in experiment [4]; in the experiment on DU145 (Prostate Cancer)) was above 50% throughout.
Regarding `CCCC(Nc1cncc(-c2ccc(OCCCn3ccnc3)c(OC)c2)n1)c1ccccc1` (stereo not drawn), the “Tubulin inhibition” value in experiment [1] is given as “+ (compounds which inhibited tubulin polymerisation by greater than 50% at 50 μM)”. Further, the inhibition at 20 µM (in experiment [2]; in experiment [3]; with PC3 (Prostate Cancer); in experiment [4]; with DU145 (Prostate Cancer)) was above 50% in each case.
For the compound `CCCC(Nc1cncc(-c2ccc(CNC(=O)C3CCCNC3)cc2)n1)c1ccccc1` (stereo not drawn), the “Tubulin inhibition” value in experiment [1] was “+ (compounds which inhibited tubulin polymerisation by greater than 50% at 50 μM)”. Moreover, the inhibition at 20 µM (in experiment [2]; in experiment [3]; in the experiment on PC3 (Prostate Cancer); in experiment [4]; in the experiment with DU145 (Prostate Cancer)) was above 50% throughout.
In the case of `CCCC(Nc1cncc(-c2ccc(OCCCCN3CCCCC3)c(OC)c2)n1)c1ccccc1` (stereo not drawn), the “Tubulin inhibition” value in experiment [1] is reported as “+ (compounds which inhibited tubulin polymerisation by greater than 50% at 50 μM)”. The inhibition at 20 µM (in experiment [2]; in experiment [3]; with PC3 (Prostate Cancer); in experiment [4]; in the experiment on DU145 (Prostate Cancer)) was above 50% in each case.
Regarding `CCCC(Nc1cncc(-c2ccc(OCCCCN3CCCC3)c(OC)c2)n1)c1ccccc1` (stereo not drawn), in experiment [1], the “Tubulin inhibition” value is listed as “+ (compounds which inhibited tubulin polymerisation by greater than 50% at 50 μM)”. In addition, the inhibition at 20 µM (in experiment [2]; in experiment [3]; with PC3 (Prostate Cancer); in experiment [4]; with DU145 (Prostate Cancer)) was above 50% in each case.
Turning to `CCCC(Nc1cncc(-c2ccc(OCCCCN(CC)CC)c(OC)c2)n1)c1ccccc1` (stereo not drawn), the “Tubulin inhibition” value in experiment [1] was “+ (compounds which inhibited tubulin polymerisation by greater than 50% at 50 μM)”. In addition, the inhibition at 20 µM (in experiment [2]; in experiment [3]; in the experiment with PC3 (Prostate Cancer); in experiment [4]; with DU145 (Prostate Cancer)) was above 50% each time.
Consider `CCCC(Nc1cncc(-c2ccc(OCCCCN3CCN(C)CC3)c(OC)c2)n1)c1ccccc1` (stereo not drawn), for which the “Tubulin inhibition” value in experiment [1] is reported as “+ (compounds which inhibited tubulin polymerisation by greater than 50% at 50 μM)”. The inhibition at 20 µM (in experiment [2]; in experiment [3]; in the experiment with PC3 (Prostate Cancer); in experiment [4]; in the experiment with DU145 (Prostate Cancer)) was above 50% throughout.
On to `CCCC(Nc1cncc(-c2ccc(OCCCCN)c(OC)c2)n1)c1ccccc1` (stereo not drawn), for which, in experiment [1], the “Tubulin inhibition” value was “+ (compounds which inhibited tubulin polymerisation by greater than 50% at 50 μM)”. The inhibition at 20 µM (in experiment [2]; in experiment [3]; in the experiment on PC3 (Prostate Cancer); in experiment [4]; in the experiment with DU145 (Prostate Cancer)) was above 50% each time.
For the compound `CCCC(Nc1cncc(-c2ccc(CNC(=O)C3CCNCC3)cc2)n1)c1ccccc1` (stereo not drawn), the “Tubulin inhibition” value in experiment [1] is listed as “+ (compounds which inhibited tubulin polymerisation by greater than 50% at 50 μM)”. Further, the inhibition at 20 µM (in experiment [2]; in experiment [3]; in the experiment on PC3 (Prostate Cancer); in experiment [4]; in the experiment on DU145 (Prostate Cancer)) was above 50% throughout.
As for `CCCC(Nc1nnc(C)c(-c2ccc(O)c(OC)c2)n1)c1ccccc1` (stereo not drawn), the “Tubulin inhibition” value in experiment [1] is “+ (compounds which inhibited tubulin polymerisation by greater than 50% at 50 μM)”. Further, the inhibition at 20 µM (in experiment [2]; in experiment [3]; in the experiment on PC3 (Prostate Cancer); in experiment [4]; with DU145 (Prostate Cancer)) was above 50% in each case.
With `CCCC(Nc1cncc(-c2ccc(CN3CCCC3)cc2)n1)c1ccccc1` (stereo not drawn), the “Tubulin inhibition” value in experiment [1] is recorded as “+ (compounds which inhibited tubulin polymerisation by greater than 50% at 50 μM)”. The inhibition at 20 µM (in experiment [2]; in experiment [3]; with PC3 (Prostate Cancer); in experiment [4]; in the experiment on DU145 (Prostate Cancer)) was above 50% each time.
For the compound `CCCC(Nc1cncc(-c2ccc(CN)c(OC)c2)n1)c1cccnc1` (stereo not drawn), in experiment [1], the “Tubulin inhibition” value was “+ (compounds which inhibited tubulin polymerisation by greater than 50% at 50 μM)”. For the same compound, the inhibition at 20 µM (in experiment [2]; in experiment [3]; with PC3 (Prostate Cancer); in experiment [4]; in the experiment with DU145 (Prostate Cancer)) was above 50% in each case.
On to `CCNC(=O)Nc1ccc(-c2cncc(N[C@@H](CC)c3cccnc3)n2)cc1OC`, for which the “Tubulin inhibition” value in experiment [1] is recorded as “+ (compounds which inhibited tubulin polymerisation by greater than 50% at 50 μM)”. The inhibition at 20 µM (in experiment [2]; in experiment [3]; with PC3 (Prostate Cancer); in experiment [4]; in the experiment on DU145 (Prostate Cancer)) was above 50% each time.
On to `COc1cc(-c2nccc(N[C@@H](C)c3ccccc3)n2)ccc1O`, for which the “Tubulin inhibition” value in experiment [1] was “+ (compounds which inhibited tubulin polymerisation by greater than 50% at 50 μM)”. For the same compound, the inhibition at 20 µM (in experiment [2]; in experiment [3]; in the experiment on PC3 (Prostate Cancer); in experiment [4]; in the experiment on DU145 (Prostate Cancer)) was above 50% each time.
`COc1cc(-c2cncc(N[C@@H](C)c3ccccc3)c2)ccc1O`: the “Tubulin inhibition” value in experiment [1] was “+ (compounds which inhibited tubulin polymerisation by greater than 50% at 50 μM)”. Further, the inhibition at 20 µM (in experiment [2]; in experiment [3]; in the experiment on PC3 (Prostate Cancer); in experiment [4]; in the experiment on DU145 (Prostate Cancer)) was above 50% each time.
On to `CCCC(Nc1cncc(-c2ccc(O)c(OC)c2)c1)c1ccccc1` (stereo not drawn), for which the “Tubulin inhibition” value in experiment [1] is “+ (compounds which inhibited tubulin polymerisation by greater than 50% at 50 μM)”. For the same compound, the inhibition at 20 µM (in experiment [2]; in experiment [3]; with PC3 (Prostate Cancer); in experiment [4]; with DU145 (Prostate Cancer)) was above 50% throughout.
For `CCCC(Nc1cncc(-c2cc(C)c(O)c(C)c2)c1)c1ccccc1` (stereo not drawn), the “Tubulin inhibition” value in experiment [1] is on record as “+ (compounds which inhibited tubulin polymerisation by greater than 50% at 50 μM)”. Also, the inhibition at 20 µM (in experiment [2]; in experiment [3]; in the experiment on PC3 (Prostate Cancer); in experiment [4]; in the experiment on DU145 (Prostate Cancer)) was above 50% throughout.

What is called inhibition is the share of the control response that was lost under treatment. The low end stands for a response near the control, the high end for a response far below the control.

Source of the values: patent US9732046B2, “Substituted 1,2,4-triazines as tubulin inhibitors” (YM Biosciences Australia Pty Ltd., priority 2003, dated 2017).
